Here are results for 3 compounds from publication PMC11882969 (Nature Communications, 2025).

Several values for one entry are separate records, joined by “and”; a condition that tells them apart may be missing. Identical values can stand only once.

Experiment [1] deals with T1, hCB2 (Homo sapiens, UniProt P34972). The experiment is described as follows: TRUPATH BRET2 GoA dissociation, HEK293T. On the set-up: expressed in transfected cells; host or cells: HEK293T cells (ATCC: CRL-3216), transient co-transfection. Type of experiment: cell-based. The following applies: for functional response, concentration-response point (FigS7e, normalized): Log[drug], replicate columns. Background: Bioluminescence resonance energy transfer reports proximity on the nanometre scale.

Experiment [2] has as its target T1, hCB2. The experiment is described as follows: Tango β-arrestin-2 recruitment, HTLA cells, CB2R. It is filed as cell-based. On the set-up: expressed in transfected cells; host or cells: HEK293 cells stably expressing human CB2R (Laboratory of Ken Mackie). The following applies: hCB2; for EC50: read-out: Tango ß-arrestin recruitment EC50. (In general: Recruitment of arrestin is a read-out of receptor activation apart from second messengers.)
Method: The Tango β-arrestin-2 recruitment assays were performed as described[83]. In brief, HTLA cells (a gift from the laboratory of R. Axel) were transiently transfected with human CB1R or CB2R Tango DNA construct overnight in DMEM supplemented with 10 % FBS, 100 µg ml−1 streptomycin and 100 U ml−1 penicillin. The transfected cells were then plated into poly-L-lysine-coated 384-well white clear-bottom cell culture plates in DMEM containing 1% dialysed FBS at a density of 10,000–15,000 cells per well. After incubation for 6 h, the plates were added with drug solutions prepared in DMEM containing 1% dialysed FBS for overnight incubation. On the day of assay, medium and drug solutions were removed and 20 µl per well of BrightGlo reagent (Promega) was added. The plates were further incubated for 20 min at room temperature and counted using the Wallac TriLux Microbeta counter (PerkinElmer). The results were analysed using GraphPad Prism 9. Each experiment was performed in triplicate and functional IC50 values were determined from the mean of three independent experiments.

T1 sequence (P34972 whole entry): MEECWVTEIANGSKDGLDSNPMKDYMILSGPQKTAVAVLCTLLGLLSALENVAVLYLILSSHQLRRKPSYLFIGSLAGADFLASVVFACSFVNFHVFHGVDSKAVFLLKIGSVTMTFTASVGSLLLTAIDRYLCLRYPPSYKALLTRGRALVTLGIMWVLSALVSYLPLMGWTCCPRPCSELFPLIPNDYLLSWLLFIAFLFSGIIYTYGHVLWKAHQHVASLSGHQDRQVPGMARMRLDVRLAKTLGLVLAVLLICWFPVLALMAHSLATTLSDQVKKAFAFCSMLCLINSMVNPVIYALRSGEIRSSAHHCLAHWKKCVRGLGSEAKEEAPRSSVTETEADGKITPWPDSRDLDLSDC

Turning to `COC(=O)C(NC(=O)c1cc(C)n(-c2cccc(C(F)(F)F)c2)n1)c1cccs1` (centres unmarked) [‘60154], the “BRET2 + GoA pEC50” value at hCB2 [1] was 6.2 [5.6 – 6.9]. In addition, the EC50 on hCB2 [1] was 594 nM; at hCB2 [2], 3340 nM. For the same compound, the Emax on hCB2 [1] (HEK-293T) amounted to 31%; on hCB2 [2] (HTLA, read-out: Tango ß-arrestin recruitment Emax), 21%. For the same compound, the “functional response, concentration-response point (FigS7e, normalized)” value (shortened to “functional response … (FigS7e, normalized)”) at hCB2 [1] (M = -4.52) is 18.671 and 20.9182 and 18.0789 and 16.7004; on hCB2 [1] (M = -5) it was 15.3625 and 13.9237 and 14.7132 and 15.4107 and 19.4252 and 16.9876 and 18.2783 and 12.2533 and 11.9429 and 13.7725 and 13.3839 and 13.0025; at hCB2 [1] (M = -5.52) it was 9.963 and 10.999 and 10.5318 and 12.5419 and 11.8092 and 12.1824 and 9.605 and 7.598 and 8.713 and 9.44 and 10.8654 and 8.808; at hCB2 [1] (M = -6) it was 5.593 and 3.808 and 3.775 and 3.462 and 6.67 and 5.511 and 6.374 and 4.542 and 6.846 and 4.398 and 2.755 and 4.192; at hCB2 [1] (M = -6.52) it was 2.409 and 1.324 and 2.492 and 1.478 and 2.2654 and 2.677 and 2.607 and 2.647 and 2.733 and 1.4886 and 1.807 and 1.367; at hCB2 [1] (M = -7), 1.643 and 1.038 and 0.587 and 0.6659 and 0.7726 and 0.2984 and 0.761 and 0.6332 and 1.544 and 0.7947 and 0.4011 and 0.3139. The “functional response … (FigS7e, normalized)” value on hCB2 [1] (M = -7.52) was 0.7104 and 0.5146 and 0.05736 and 0.5245 and 1.192 and 0.7027 and 0.8893 and 0.666 and 0.5954 and 0.6963 and -0.03292 and 0.3929; on hCB2 [1] (M = -8), 0.3645 and 0.5311 and 0.5376 and 0.156 and -0.2264 and 0.2284 and 0.4344 and -0.3685 and 0.1487 and 0.4213 and 0.2144 and 0.1495; at hCB2 [1] (M = -8.52) it was 0.07184 and -0.1728 and 0.5013 and 0.625 and -0.3869 and 0.7675 and 0.7171 and -0.3804 and 0.4049 and 0.07444 and 0.02209 and 0.4671. At hCB2 [2], the “Tango ß-arrestin recruitment pEC50” value is 5.5 [5.4 – 5.6].
`COC(=O)[C@@H]1[C@@H]2CCC[C@@H]2CN1C(=O)c1cc(C)n(-c2cccc(Cl)c2)n1` (racemic) [‘10010]: the “functional response … (FigS7e, normalized)” value is 13.7314 and 19.7654 and 16.2539 and 16.3582 and 15.5266 and 14.7181 and 16.9744 and 17.1956 and 17.3437 and 20.7447 and 17.5139 and 16.5546 on hCB2 [1] (M = -5); 20.9042 and 19.2165 and 18.0732 and 18.0369 and 19.6455 and 19.8563 and 17.8521 and 14.5073 and 16.3411 and 19.903 and 17.2602 and 16.9755 at hCB2 [1] (M = -5.52); 10.7507 and 14.9427 and 13.7359 and 16.0951 and 12.4583 and 11.3422 and 12.1059 and 9.687 and 11.8107 and 11.4703 and 9.703 and 11.3929 at hCB2 [1] (M = -6); 4.563 and 6.7947 and 8.079 and 4.985 and 4.497 and 4.0725 and 5.772 and 5.524 and 4.879 and 5.1763 and 4.984 and 5.043 at hCB2 [1] (M = -6.52); 0.9969 and 1.487 and 2.14 and 1.042 and 1.585 and 1.996 and 1.046 and 1.153 and 1.5 and 1.42 and 1.036 and 1.049 at hCB2 [1] (M = -7); 0.4797 and -0.06465 and 1.02 and 1.242 and 0.9491 and 0.7245 and 0.6969 and 0.2961 and 0.374 and 0.3276 and 0.4451 and 0.1667 on hCB2 [1] (M = -7.52). For the same compound, the “functional response … (FigS7e, normalized)” value on hCB2 [1] (M = -8) was 0.02154 and 0.144 and -0.228 and -0.5682 and 0.189 and -0.07359 and -0.0114 and 0.652 and 0.7051 and 0.1667 and -0.0685 and 0.08312; on hCB2 [1] (M = -8.52), -0.1696 and -0.1994 and 0.2365 and -0.2192 and 0.07356 and 0.6319 and 1.0091 and 0.1075 and 0.1334 and 0.5456 and 0.1807 and -0.04223; at hCB2 [1] (M = -12), -0.3529 and 0.3603 and 0.09782 and -0.1053. For the same compound, the “Tango ß-arrestin recruitment Emax” value at hCB2 [2] amounted to 18% [17 – 19]. In addition, at hCB2 [2], the “Tango ß-arrestin recruitment pEC50” value is 6.3 [6.2 – 6.3]. Moreover, the EC50 at hCB2 [2] was found to be 556 nM.
For the compound `COC(=O)[C@@H]1[C@@H]2CCC[C@@H]2CN1C(=O)c1cc(C)n(-c2cccc(C(F)(F)F)c2)n1` [‘6439], the EC50 is 97.1 nM on hCB2 [1] and 338 nM on hCB2 [2]. The “BRET2 + GoA Emax” value on hCB2 [1] (% of CP-55,940) was 81% [34 – 128]. In addition, the “functional response … (FigS7e, normalized)” value was 12.9272 and 15.9912 and 13.3933 and 14.1917 and 9.02 and 8.9115 and 9.964 and 9.677 and 16.1327 and 18.1614 and 17.7797 and 17.4918 on hCB2 [1] (M = -5); 13.7946 and 14.1528 and 14.7009 and 15.5942 and 7.819 and 9.861 and 11.3112 and 10.248 and 13.5348 (2×) and 16.0255 and 15.2556 at hCB2 [1] (M = -5.52); 13.5098 and 11.3391 and 11.5247 and 10.1826 and 7.139 and 7.697 and 10.1371 and 9.4066 and 13.2838 and 11.7338 and 12.1556 and 10.2207 on hCB2 [1] (M = -6); 8.245 and 8.18 and 7.1316 and 8.582 and 5.652 and 4.45 and 4.542 and 4.824 and 8.731 and 6.786 and 7 and 7.151 on hCB2 [1] (M = -6.52); 3.477 and 2.251 and 1.336 and 1.824 and 2.04 and 2.129 and 1.242 and 0.8388 and 2.913 and 2.96 and 2.756 and 1.624 on hCB2 [1] (M = -7); 0.5378 and 0.2401 and 2.191 and 0.8701 and 1.326 and 0.4303 and 0.552 and 0.1165 and 1.032 and 0.8075 and 1.393 and 1.507 on hCB2 [1] (M = -7.52). Moreover, the “functional response … (FigS7e, normalized)” value at hCB2 [1] (M = -8) is 0.2919 and 0.01139 and 0.3868 and 0.4645 and -0.1973 and 0.3762 and 0.9064 and 1.539 and 0.3891 and 0.4427 and 0.6703 and 0.6301; on hCB2 [1] (M = -8.52), -0.3369 and -0.3039 and -0.3274 and -0.06361 and -0.07458 and 0.1558 and -0.006646 and 0.09378 and 0.05117 and 0.1425 and 0.3472 and 0.4422; at hCB2 [1] (M = -12), 0.6997 and -0.1013 and -0.3699 and -0.2285. For the same compound, the “Tango ß-arrestin recruitment Emax” value on hCB2 [2] is 14% [13 – 15]. Moreover, on hCB2 [2], the “Tango ß-arrestin recruitment pEC50” value is 6.5 [6.4 – 6.6].

One may read the EC50 as the concentration giving half of the maximal effect. What is called Emax is the maximal effect, on the per cent scale that the assay sets.
